Literature values as cited in patent publication US20030232784A1, “Hyaluronic acid-associated superoxide dismutase mimics and their use in the treatment of joint pain” (priority 2002, published 2003).

System: patients with active classical rheumatoid arthritis

## Orgotein®: a bovine SOD with a Cu/Zn catalytic site
Intraarticular injection, patients with active classical rheumatoid arthritis
  effect on rheumatoid arthritis symptoms: ameliorated a number of symptoms
Reason for removal from the market
  immunogenicity: development of immune responses against the bovine enzyme
